Columns and labels:
[1] = system: human stomach cancer cell line SNU-16; assay: cells; settings: SNU-16, 72 h, read-out: SNU-16 (IC50 (nM))
Procedure: Then, 10 μL of Cell Counting Kit-8 (Dojindo Laboratories, CK04) was added to each well, and the resultant was incubated for 1 to 2 hours in a 5% CO2 incubator (37° C.) to cause a color reaction. The absorbance value was measured with ENVISION™ (PerkinElmer Co., Ltd.) at 450 nm. Absorbance value of the wells without adding the test substance was defined as 100% and the absorbance value of the wells containing no cells was defined as 0%. Then, an absorbance ratio in the presence of the test substance was calculated.

[2] = system: SNU-16 subcutaneous xenograft; assay: Antitumor effect in SNU-16 subcutaneous xenograft model in mice; type: in vivo; settings: nude mice, tumor volume on last day
Procedure: Human stomach cancer cell line SNU-16, which had been cultured in an RPMI-1640 medium containing 10% FBS, and penicillin/streptomycin, were adjusted to a concentration of 1×10^8 cells/mL with Hanks' Balanced Salt Solution (GIBCO #24020) to prepare a cell suspension, and the suspension was mixed with MATRIGEL (BD Biosciences, Cat#354234) in a ratio of 1:1 to prepare a cell suspension in a concentration of 5×10^7 cells/mil. The cell suspension was inoculated in a volume of 100 μL into a subcutaneous part of a right flank of nude mice, 6 to 7 weeks of ages (BALB/cAJcl-nu/nu, female, Clea Japan Inc.). Seven days after cell inoculation, the shortest diameter and the longest diameter of a tumor in each mouse were measured by using an electronic digital caliper (Digimatic™ caliper, Mitutoyo Corporation), so as to calculate the volume of the tumor in accordance with the following calculation formula: Tumor volume (mm^3)=Longest diameter (mm)×Shortest diameter (mm)×Shortest diameter (mm)/2
On the basis of the volumes of tumors obtained on the first day of administration, the nude mice were grouped such that averages of the tumor volumes were substantially equal among the groups. Each test substance was dissolved in DMSO, Tween 80 was added thereto to prepare a solution in a 10-fold concentration and the thus prepared solution was stored at the freezer before use. Immediately before the administration, the stock solution was diluted with a 5% glucose solution to obtain a final administration solution (in which a ratio in % among DMSO, Tween 80 and the 5% glucose solution was 3.5:6.5:90). Each evaluation sample was orally administered to test substance administration group at a volume of 20 mL/Kg once a day continuously for 11 days, and in a control group, an administration solvent was orally administered under the same conditions. Incidentally, the experiment was conducted on groups each consisting of 5 mice.
With respect to each of the control group and test substance administration group, a ratio of the weight measured on the final day to the weight measured on the first day (relative body weight: RBW) was calculated. If a ratio of the RBW of the test substance administration group/the RBW of the control group is 0.9 or more, the corresponding test substance administration group was defined as a well-tolerated. In the test substance administration group thus defined as well-tolerated, a ratio of the tumor volume of the test substance-dosing group to the tumor volume of the control group obtained on the last day (T/C) (%) was calculated, and shown in Table 3.

Compound: CNC(=O)n1ccc2cc(Oc3ccnc(NC(=O)c4ccc(C5CCN(CCO)CC5)cc4)c3)c(OCCOC)cc21 [Compound (I), 5-({2-[({4-[1-(2-hydroxyethyl)piperidin-4-yl]phenyl}carbonyl)amino]pyridin-4-yl}oxy)-6-(2-methoxyethoxy)-N-methyl-1H-indole-1-carboxamide]
- IC50 [1]: 4.2 nM
- T/C (%) ([2]; 6.25 mg/kg orally once a day for 11 days): 49%
- T/C (%) ([2]; 12.5 mg/kg orally once a day for 11 days): 26%
- T/C (%) ([2]; 25 mg/kg orally once a day for 11 days): 16%
- T/C (%) ([2]; 50 mg/kg orally once a day for 11 days): 7%

Reference: patent US9951047B2, “Salt of monocyclic pyridine derivative and crystal thereof” (Eisai R&D Management Co., Ltd., priority 2014, dated 2018)
